Data on eight compounds can be found in PubChem BioAssay (NCI).

What all share (test): NCI tumour cell line growth inhibition, 48 h
In assay [1] the test system is BT-549 breast.
Assay [2] deals with HOP-62 NSCLC.
Assay [3] deals with HS 578T breast.
Assay [4] concerns HL-60(TB) leukemia.
The subject of assay [5] is SN12C renal.
Assay [6] has as its system HCC-2998 colon.
For assay [7], the system named is HCT-15 colon.
The test system of assay [8] is NCI-H226 lung.
The subject of assay [9] is COLO 205 colon.
Assay [10] concerns SNB-19 CNS.
Assay [11] relates to HT29 colon.
For assay [12], the system named is SR leukemia.
For assay [13], the system named is UO-31 renal.
Assay [14] deals with UACC-257 melanoma.
The subject of assay [15] is MCF7 breast.
The subject of assay [16] is SW-620 colon.
Assay [17] concerns A549 NSCLC.
Assay [18] concerns IGROV1 ovarian.

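1) Cells in 96-well plates. 2) Compound, 48 h, 5 concentrations. 3) Linear interpolation between surrounding doses. 4) Unreached endpoint = highest concentration. At the GI50, growth is halved. TGI marks complete inhibition of growth.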

Take `Cc1ccc(C2N=C(N)NC3=C2CCOc2c3ccc3ccccc23)cc1` (centres undefined): the TGI in assay [1] is more than 79.8 µM; in [2], 35.1 µM; in assay [3], 67.7 µM; in assay [4], 19 µM; in assay [5] it was more than 72 µM; in [6] it was 76.4 µM. The TGI is more than 60.1 µM in assay [7]; more than 88.4 µM in assay [8]; more than 61.6 µM in assay [9]; more than 100 µM in assay [10]; more than 66.7 µM in assay [11]; more than 100 µM in assay [12]. For the same compound, the TGI in [13] is more than 100 µM; in [14] it was more than 65.7 µM; in assay [15] it was more than 51.5 µM; in assay [16] it was more than 100 µM; in assay [17], more than 64.6 µM; in assay [18], more than 100 µM. Further, the GI50 was 28.1 µM in [8] and 44.6 µM in assay [18].
Consider `Cc1[nH]n(C(=N)N)c(=O)c1CCO`, for which the TGI in [1], in assay [2], in [3], in assay [4], in assay [5] and in assay [6] was more than 100 µM throughout. Besides, the TGI in assay [7], in assay [8], in [9], in assay [10], in assay [11] and in [12] was more than 100 µM throughout. Also, the TGI in assay [13], in assay [14], in assay [15], in assay [16], in assay [17] and in assay [18] was more than 100 µM in each case.
As to `O=C(O)CCNC(=O)c1cc(N(CCBr)CCBr)c([N+](=O)[O-])cc1[N+](=O)[O-]`, the TGI in assay [1], in assay [2], in [3], in assay [4], in [5] and in assay [6] was more than 100 µM in each case. For the same compound, the TGI in assay [7], in assay [8], in [9], in [10], in assay [11] and in assay [12] was more than 100 µM in each case. Besides, the TGI in assay [13], in [14], in assay [15], in assay [16], in assay [17] and in assay [18] was more than 100 µM throughout.
Turning to `CC(C)COC(=O)OC(=O)c1ccc(N(C)Cc2cnc3nc(N)nc(N)c3n2)cc1`, the TGI in assay [1] was 97.8 µM; in [2], more than 100 µM; in assay [3], more than 100 µM; in assay [4], more than 100 µM; in [5] it was more than 100 µM; in [6], more than 100 µM. Moreover, the TGI in assay [7], in [8], in assay [9], in assay [10], in assay [11] and in assay [12] was more than 100 µM in each case. In addition, the TGI in [13], in assay [14], in assay [15], in assay [16], in assay [17] and in assay [18] was more than 100 µM in each case.
In the case of `CC(=O)Nc1ccc(-c2nc3ccccc3s2)cc1C`, the TGI in assay [1], in assay [2], in assay [3], in assay [4], in assay [6] and in assay [7] was more than 100 µM throughout. Besides, the TGI in assay [8], in assay [9], in assay [10], in [11], in assay [12] and in assay [13] was more than 100 µM in each case. The TGI in [14], in assay [15], in [16] and in assay [18] was more than 100 µM in each case.
As to `c1cc2nnc1SCCCSc1ccc(nn1)SCCCSc1ccc(nn1)SCCCS2`, the TGI in [1], in assay [2], in [3], in [4], in assay [5] and in assay [6] was more than 100 µM in each case. For the same compound, the TGI in [7], in [8], in assay [9], in assay [10], in assay [11] and in [12] was more than 100 µM throughout. Moreover, the TGI in assay [13], in assay [14], in assay [15], in assay [16], in assay [17] and in assay [18] was more than 100 µM in each case.
As to `C[N+](C)(C)/N=C/c1ccc(O)c(O)c1`, the TGI in assay [1], in [2], in assay [3], in [4], in assay [5] and in assay [6] was more than 100 µM each time. Besides, the TGI in assay [7], in [8], in assay [9], in assay [10], in assay [11] and in assay [12] was more than 100 µM each time. In addition, the TGI in assay [13], in assay [14], in assay [15], in [16], in [17] and in assay [18] was more than 100 µM each time.
`COc1cc(/C=C/c2nc(N)nnc2C)cc(OC)c1OC`: the TGI in assay [1] was more than 64 µM; in [2] it was 29 µM; in assay [3], more than 67.5 µM; in assay [4], 8.36 µM; in assay [5] it was more than 100 µM; in [6], 29.5 µM. The TGI is 38.9 µM in [7]; more than 55.4 µM in [8]; more than 53 µM in [9]; more than 82.2 µM in assay [10]; 39 µM in assay [11]; more than 100 µM in assay [12]. Further, the TGI was more than 42 µM in assay [13]; more than 59.8 µM in [14]; more than 100 µM in [15]; more than 100 µM in [16]; more than 79.4 µM in [17]; 37.3 µM in assay [18].
